From PubChem BioAssay (NCI)
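Compound exposure: 48 hours, 5 concentrations, 96-well plates. GI50: concentration for 50% inhibition of growth. TGI: total growth inhibition.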

Assays:
Assay in all cases: DTP human tumour cell line panel, 48 h
BT-549 breast = system: BT-549 breast
CAKI-1 renal = system: CAKI-1 renal
CCRF-CEM leukemia = system: CCRF-CEM leukemia
COLO 205 colon = system: COLO 205 colon
DU-145 prostate = system: DU-145 prostate
HS 578T breast = system: HS 578T breast
OVCAR-8 ovarian = system: OVCAR-8 ovarian
SF-268 CNS = system: SF-268 CNS
SNB-19 CNS = system: SNB-19 CNS
SR leukemia = system: SR leukemia

Q: What does the source list for Cc1nc2n(c(=O)c1CCN1CCC(c3noc4cc(F)ccc34)CC1)CCCC2?
A: GI50 (BT-549 breast): > 50 µM; TGI (BT-549 breast): > 50 µM; GI50 (CAKI-1 renal): > 50 µM; TGI (CAKI-1 renal): > 50 µM; GI50 (CCRF-CEM leukemia): > 50 µM; TGI (CCRF-CEM leukemia): > 50 µM; GI50 (COLO 205 colon): > 50 µM; TGI (COLO 205 colon): > 50 µM; GI50 (DU-145 prostate): > 50 µM; TGI (DU-145 prostate): > 50 µM; GI50 (HS 578T breast): > 50 µM; TGI (HS 578T breast): > 50 µM; GI50 (OVCAR-8 ovarian): > 50 µM; TGI (OVCAR-8 ovarian): > 50 µM; GI50 (SF-268 CNS): > 50 µM; TGI (SF-268 CNS): > 50 µM; GI50 (SNB-19 CNS): > 50 µM; TGI (SNB-19 CNS): > 50 µM; GI50 (SR leukemia): > 50 µM; TGI (SR leukemia): > 50 µM

Q: Which results are given for CCCCCCCC(=O)SCC/C=C/[C@@H]1CC(=O)NCc2nc(co2)C2=N[C@@](C)(CS2)C(=O)N[C@@H](C(C)C)C(=O)O1?
A: GI50 (BT-549 breast): 0.127 µM; TGI (BT-549 breast): > 50 µM; GI50 (CAKI-1 renal): 0.125 µM; TGI (CAKI-1 renal): 0.394 µM; GI50 (CCRF-CEM leukemia): 0.0296 µM; TGI (CCRF-CEM leukemia): > 50 µM; GI50 (COLO 205 colon): 0.0342 µM; TGI (COLO 205 colon): 0.141 µM; GI50 (DU-145 prostate): 0.0123 µM; TGI (DU-145 prostate): > 50 µM; GI50 (HS 578T breast): 0.0125 µM; GI50 (OVCAR-8 ovarian): 0.0124 µM; TGI (OVCAR-8 ovarian): > 50 µM; GI50 (SF-268 CNS): 0.0422 µM; TGI (SF-268 CNS): 8.34 µM; GI50 (SNB-19 CNS): 0.115 µM; TGI (SNB-19 CNS): > 50 µM; GI50 (SR leukemia): 0.0164 µM; TGI (SR leukemia): > 50 µM

Q: With COc1ccc(C(=O)c2cc3c(N)c(C(=O)Nc4cccc(Cl)c4C)sc3nc2C)cc1 as the molecule, how does the GI50 (BT-549 breast) read?
A: 0.25 µM

Q: What about the TGI (BT-549 breast) of the same molecule?
A: > 25 µM

Q: And the GI50 (CAKI-1 renal)?
A: 0.0995 µM

Q: And the TGI (CAKI-1 renal)?
A: > 25 µM

Q: What about the GI50 (CCRF-CEM leukemia) of the same molecule?
A: 0.0889 µM

Q: What about the TGI (CCRF-CEM leukemia) of the same molecule?
A: > 25 µM

Q: And the GI50 (COLO 205 colon)?
A: 0.109 µM

Q: And the TGI (COLO 205 colon)?
A: 7.13 µM

Q: And the GI50 (DU-145 prostate)?
A: 0.105 µM

Q: And the TGI (DU-145 prostate)?
A: > 25 µM

Q: And the GI50 (HS 578T breast)?
A: 0.0832 µM

Q: And the TGI (HS 578T breast)?
A: > 25 µM

Q: What about the GI50 (OVCAR-8 ovarian) of the same molecule?
A: 0.125 µM

Q: What about the TGI (OVCAR-8 ovarian) of the same molecule?
A: > 25 µM

Q: What about the GI50 (SF-268 CNS) of the same molecule?
A: 0.419 µM

Q: What about the TGI (SF-268 CNS) of the same molecule?
A: > 25 µM

Q: What about the GI50 (SNB-19 CNS) of the same molecule?
A: 0.117 µM

Q: What about the TGI (SNB-19 CNS) of the same molecule?
A: > 25 µM

Q: What about the GI50 (SR leukemia) of the same molecule?
A: 0.0613 µM

Q: And the TGI (SR leukemia)?
A: 0.511 µM

Q: What does the source list for NC(=O)/C=C/NC(=O)/C=N\O?
A: TGI (BT-549 breast): > 100 µM; TGI (CAKI-1 renal): > 100 µM; TGI (CCRF-CEM leukemia): > 100 µM; TGI (COLO 205 colon): > 100 µM; TGI (DU-145 prostate): > 100 µM; TGI (HS 578T breast): > 100 µM; TGI (OVCAR-8 ovarian): > 100 µM; TGI (SF-268 CNS): > 100 µM; TGI (SNB-19 CNS): > 100 µM; TGI (SR leukemia): > 100 µM
